# Results taken from patent US4035381A, “Antibacterial agents” (priority 1976, dated 1977).
# Where “and” joins values, the source holds several entries; their conditions need not be identical. Equal values may be shown once. Where a name gives a salt, the structure may show the parent alone. Read-outs that look alike come from different tables or passages of the source.
# Key:
# [1] = tested on: S. aureus Meth.-res. A15097; test: Antibiotic activity in nutrient broth (MIC), S. aureus Meth.-res.; assay type: cell-based; details: Staphylococcus aureus
# [2] = Hydrolysis to parent penicillin (paper strip and liquid chromatography); assay type: in vitro ADME; details: 0.2 mg./ml., pH 6.5-7.0 buffer or serum; for hydrolysis in water to parent penicillin: room temperature and 37° C.
# Hygroscopicity = assay type: physicochemical; details: solid product
# E. coli A9675 = test: Antibiotic activity in nutrient broth (MIC), E. coli A9675; assay type: cell-based; details: Escherichia coli, 10^-4 dilution, Ex. 1/Ex. 2 figures recalculated on penicillin content
# Description: (§1) ANTIBIOTIC ACTIVITY IN NUTRIENT BROTH
# (§2) **Dilution of overnight broth culture
# (§3) +These figures were […] on the basis that there was only 60.61%
# (§4) amoxicillin in the sample; in other words, the numerical values were
# (§5) lowered, i.e. improved.
# (§6) ----//These figures were recalculated on the basis that there was only
# Bioassay = details: theory 730 (Ex. 1) / 596 (Ex. 2) mcg./mg.
# [3] = Mouse blood levels after oral administration; details: 100 mg./kg., tested twice, average of 6 mice each
# Str. pyogenes A9604 = test: Antibiotic activity in nutrient broth (MIC), Str. pyogenes; assay type: cell-based; details: Streptococcus pyogenes, 45% AAB + 5% serum + 50% broth, 10^-3 dilution of overnight culture, Ex. 1/Ex. 2 figures recalculated on penicillin content
# Description: as §1
# (§7) *45% AAB + 5% serum + 50% broth
# as §2, §3, §4, §5, §6
# Ser. marcescens A20019 = test: Antibiotic activity in nutrient broth (MIC), Ser. marcescens; assay type: cell-based; details: Serratia marcescens, 10^-4 dilution, Ex. 1/Ex. 2 figures recalculated on penicillin content
# Description: as §1, §2, §3, §4, §5, §6
# [4] = Stability of reconstituted aqueous solution; assay type: physicochemical
# Pr. mirabilis A9900 = test: Antibiotic activity in nutrient broth (MIC), Pr. mirabilis; assay type: cell-based; details: Proteus mirabilis, 10^-4 dilution, Ex. 1/Ex. 2 figures recalculated on penicillin content
# Description: as §1, §2, §3, §4, §5, §6
# K. pneumoniae A9977 = test: Antibiotic activity in nutrient broth (MIC), K. pneumoniae A9977; assay type: cell-based; details: Klebsiella pneumoniae, 10^-4 dilution, Ex. 1/Ex. 2 figures recalculated on penicillin content
# Description: as §1, §2, §3, §4, §5, §6
# E. coli Juhl A15119 = test: Antibiotic activity in nutrient broth (MIC), E. coli Juhl; assay type: cell-based; details: Escherichia coli, JUHLA15119, 10^-4 dilution, Ex. 1/Ex. 2 figures recalculated on penicillin content
# Description: as §1, §2, §3, §4, §5, §6
# S. aureus bx 1633 A9606 = test: Antibiotic activity in nutrient broth (MIC), S. aureus bx 1633; assay type: cell-based; details: Ex. 1/Ex. 2 figures recalculated on penicillin content
# S. aureus Smith A9537 = test: Antibiotic activity in nutrient broth (MIC), S. aureus Smith; assay type: cell-based; details: Staphylococcus aureus, 10^-4 dilution, Ex. 1/Ex. 2 figures recalculated on penicillin content
# Description: as §1, §2, §3, §4, §5, §6
# Ps. aeruginosa A9843A = test: Antibiotic activity in nutrient broth (MIC), Ps. aeruginosa; assay type: cell-based; details: Pseudomonas aeruginosa
# Ent. cloacae A9656 = test: Antibiotic activity in nutrient broth (MIC), Ent. cloacae A9656; assay type: cell-based; details: Enterobacter cloacae, 10^-4 dilution, Ex. 1/Ex. 2 figures recalculated on penicillin content
# Pr. morganii A15153 = test: Antibiotic activity in nutrient broth (MIC), Pr. morganii; assay type: cell-based; details: Morganella morganii, 10^-4 dilution, Ex. 1/Ex. 2 figures recalculated on penicillin content
# K. pneumoniae A15130 = test: Antibiotic activity in nutrient broth (MIC), K. pneumoniae A15130; assay type: cell-based; details: Klebsiella pneumoniae
# Ent. cloacae A9659 = test: Antibiotic activity in nutrient broth (MIC), Ent. cloacae A9659; assay type: cell-based; details: Enterobacter cloacae, 10^-4 dilution, Ex. 1/Ex. 2 figures recalculated on penicillin content
# Str. pneumoniae A9585 = test: Antibiotic activity in nutrient broth (MIC), Str. pneumoniae; assay type: cell-based; details: Streptococcus pneumoniae, 45% AAB + 5% serum + 50% broth, 10^-3 dilution of overnight culture, Ex. 1/Ex. 2 figures recalculated on penicillin content
# Description: as §1, §7, §2, §3, §4, §5, §6
# [5] = In vitro antibacterial spectrum / activity; assay type: cell-based; details: vs amoxicillin (Ex. 1) or ampicillin (Ex. 2)
# [6] = Mouse blood levels after intramuscular administration; details: 10 mg./kg., average of six animals, unit assumed
# Ent. cloacae A9657 = test: Antibiotic activity in nutrient broth (MIC), Ent. cloacae A9657; assay type: cell-based; details: Enterobacter cloacae, 10^-4 dilution, Ex. 1/Ex. 2 figures recalculated on penicillin content
# [7] = Oral and intramuscular rat blood levels; assay type: in vivo
# Sal. enteritidis A9531 = test: Antibiotic activity in nutrient broth (MIC), Sal. enteritidis; assay type: cell-based; details: Salmonella enterica, 10^-4 dilution, Ex. 1/Ex. 2 figures recalculated on penicillin content
# Description: as §1, §2, §3, §4, §5, §6
# [8] = cited from earlier work
# [9] = prior-art salt; cited from earlier work
# [10] = in vivo, iv; cited from earlier work
# [11] = 3.5 hours, in µg/mL (unit assumed)
# [12] = Staphylococcus aureus, BX1633A9606, 10^-3 dilution, read-out: MIC
# [13] = SMITHA9537, nutrient broth, no serum
Structure (SMILES),MIC (E. coli A9675),MIC (Str. pyogenes A9604),MIC (Ser. marcescens A20019),MIC (Pr. mirabilis A9900),MIC (K. pneumoniae A9977),MIC (E. coli Juhl A15119),"MIC (S. aureus Smith A9537; SMITHA9537, +50% serum)",MIC (S. aureus Smith A9537; [13]),MIC (Ent. cloacae A9659),MIC (Str. pneumoniae A9585),Mouse blood level ([6]; 0.25 hours),Mouse blood level ([6]; 0.5 hours),Mouse blood level ([6]; 1 hour),Mouse blood level ([6]; 1.5 hours),MIC (Ent. cloacae A9657),MIC (Sal. enteritidis A9531),further results
"CC1(C)S[C@@H]2[C@H](N3C(=O)[C@@H](c4ccc(O)cc4)NC3c3ccc(S(=O)(=O)O)o3)C(=O)N2[C@H]1C(=O)O (mixture of isomers) [Example 1, Disodium 6-[D(-)2-(±)5-Sulfo-2-furyl-5-oxo-4-p-hydroxyphenyl-1-imidazolidinyl]penicillanate]",16 µg/mL,0.0005 µg/mL,32 µg/mL,0.25 µg/mL,0.13 µg/mL,1 µg/mL,0.13 µg/mL,0.06 µg/mL,63 µg/mL,0.0005 µg/mL,7.3 µg/mL,5.4 µg/mL,2.1 µg/mL,1.1 µg/mL,63 µg/mL,0.13 µg/mL,"MIC [1]: > 125 µg/mL; hydrolysis in water to parent penicillin [2]: rapidly hydrolyzes in water to amoxicillin; hygroscopicity (Hygroscopicity): nonhygroscopic; Bioassay (Bioassay): 696 µg/mg; Blood level ([3]; 0.5 hours, listed as Ex. 1, in µg/mL (unit assumed)): 6.3 and 9.5; Blood level ([3]; 1 hour, listed as Ex. 1, in µg/mL (unit assumed)): 7.2 and 10.4; Blood level ([3]; 2 hours, listed as Ex. 1, in µg/mL (unit assumed)): 3.9 and 4.9; Blood level [3, 11]: 1.1; stable at room temperature (diluted solution) ([4]; 10 to 20 mg./ml. of activity): at least 24 hours; MIC (S. aureus bx 1633 A9606; 10^-2 dilution): > 125 µg/mL; MIC (S. aureus bx 1633 A9606; [12]): > 125 µg/mL; MIC (Ps. aeruginosa A9843A): > 125 µg/mL; MIC (Ent. cloacae A9656): > 125 µg/mL; MIC (Pr. morganii A15153): > 125 µg/mL; MIC (K. pneumoniae A15130): 125 µg/mL; in vitro antibacterial spectrum compared with parent penicillin [5]: substantially equivalent to that of amoxicillin; Intramuscular rat blood levels compared with parent penicillin [7]: substantially equal to those of amoxicillin; Oral rat blood levels compared with parent penicillin [7]: substantially equal to those of amoxicillin"
"CC1(C)S[C@@H]2[C@H](N3C(=O)[C@@H](c4ccccc4)NC3c3ccc(S(=O)(=O)O)o3)C(=O)N2[C@H]1C(=O)O (mixture of isomers) [Example 2, Disodium 6-[D(-)2-(±)5-Sulfo-2-furyl-5-oxo-4-phenyl-1-imidazolidinyl]penicillanate]",16 µg/mL,0.004 µg/mL,32 µg/mL,0.13 µg/mL,0.5 µg/mL,2 µg/mL,0.06 µg/mL,0.06 µg/mL,63 µg/mL,0.004 µg/mL,6.3 µg/mL,3.7 µg/mL,1.3 µg/mL,0.6 µg/mL,32 µg/mL,0.013 µg/mL,"MIC [1]: > 125 µg/mL; hydrolysis in water to parent penicillin [2]: rapidly hydrolyzes in water; hydrolyzed at 0 time by liquid chromatography ([2]; to ampicillin, 0 time): 60-70%; hygroscopicity (Hygroscopicity): non-hygroscopic; Bioassay (Bioassay): 578 µg/mg; Blood level ([3]; 1 hour, listed as Ex. 2, in µg/mL (unit assumed)): 2.8 and 5.2; Blood level ([3]; 2 hours, listed as Ex. 2, in µg/mL (unit assumed)): 1.4 and 2.2; Blood level ([3]; 3.5 hours, listed as Ex. 2, in µg/mL (unit assumed)): 0.4 and 0.6; stable at room temperature (reconstituted aqueous solution) ([4]; 250 mg./ml. of activity): at least 24 hours; MIC (S. aureus bx 1633 A9606; 10^-2 dilution): > 125 µg/mL; MIC (S. aureus bx 1633 A9606; [12]): > 125 µg/mL; MIC (Ps. aeruginosa A9843A): > 125 µg/mL; MIC (Ent. cloacae A9656): > 125 µg/mL; MIC (Pr. morganii A15153): > 125 µg/mL; MIC (K. pneumoniae A15130; nutrient broth, 10^-4 dilution, Ex. 1/Ex. 2 figures recalculated on penicillin content, read-out: MIC): 63 µg/mL; in vitro antibacterial spectrum compared with parent penicillin [5]: substantially equivalent to that of ampicillin; Intramuscular rat blood levels compared with parent penicillin [7]: substantially equal to those of ampicillin; Oral rat blood levels compared with parent penicillin [7]: substantially equal to those of ampicillin"
"CC1(C)S[C@@H]2[C@H](NC(=O)[C@H](N)c3ccc(O)cc3)C(=O)N2[C@H]1C(=O)O [Amoxicillin, D(-)-α-amino-p-hydroxybenzylpenicillin, reference compound]",8 µg/mL,≤ 0.002 µg/mL,16 µg/mL,≤ 0.016 µg/mL,,0.5 µg/mL,0.008 µg/mL,0.008 µg/mL,,≤ 0.002 µg/mL,7.7 µg/mL,4.3 µg/mL,1.9 µg/mL,0.6 µg/mL,63 µg/mL,0.008 µg/mL,"Blood level ([3]; 0.5 hours, in µg/mL (unit assumed)): 7.9 and 13.9; Blood level ([3]; 1 hour, in µg/mL (unit assumed)): 7.4 and 12.4; Blood level ([3]; 2 hours, in µg/mL (unit assumed)): 4.6 and 5.8; Blood level [3, 11]: 1.5 and 0.8"
"CC1(C)S[C@@H]2[C@H](NC(=O)[C@H](N)c3ccccc3)C(=O)N2[C@H]1C(=O)O [Ampicillin, D(-)-α-aminobenzyl-penicillin, reference compound]",16 µg/mL,0.008 µg/mL,32 µg/mL,0.25 µg/mL,0.25 µg/mL,2 µg/mL,0.13 µg/mL,0.13 µg/mL,63 µg/mL,0.008 µg/mL,,,,,32 µg/mL,0.013 µg/mL,
CC1(C)S[C@@H]2[C@H](N3C(=O)[C@@H](c4ccccc4)NC3(C)C)C(=O)N2[C@H]1C(=O)O [hetacillin],,,,,,,,,,,,,,,,,stability in aqueous solution compared with parent penicillins ([8]; as sodium salts): somewhat more stable
CC1(C)S[C@@H]2[C@H](NC(=O)[C@H](N)c3ccc(O)cc3)C(=O)N2[C@H]1C(=O)O [potassium salt],,,,,,,,,,,,,,,,,"stable (reconstituted with water) ([8]; 250 mg./ml., room temperature): 15 min; precipitation from solution on standing ([8]; reconstituted with water, 250 mg./ml.): precipitates out of solution on standing"
CC1(C)S[C@@H]2[C@H](NC(=O)[C@H](N)c3ccccc3)C(=O)N2[C@H]1C(=O)O [sodium salt of ampicillin],,,,,,,,,,,,,,,,,"hygroscopicity [9]: hygroscopic; irritation on injection [10]: somewhat irritating on injection; shelf-life of aqueous solution ([8]; room temperature, reconstituted at 250 mg./ml.): about one"
